Results: PubChem BioAssay (NCI)
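Cells were grown in 96-well plates and exposed to each compound for 48 hours at five concentrations; endpoints were interpolated linearly between bracketing concentrations, or set to the highest concentration if not reached. GI50: concentration for 50% inhibition of growth. The concentration for full growth arrest is given as TGI.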

How the values were obtained:
Test in all cases: NCI tumour cell line growth inhibition, 48 h
HL-60(TB) leukemia = tested on: HL-60(TB) leukemia
SF-268 CNS = tested on: SF-268 CNS
HCT-15 colon = tested on: HCT-15 colon
MCF7 breast = tested on: MCF7 breast
HOP-92 NSCLC = tested on: HOP-92 NSCLC
K-562 leukemia = tested on: K-562 leukemia
SK-MEL-5 melanoma = tested on: SK-MEL-5 melanoma
NCI/ADR-RES ovarian = tested on: NCI/ADR-RES ovarian
RPMI-8226 leukemia = tested on: RPMI-8226 leukemia
OVCAR-3 ovarian = tested on: OVCAR-3 ovarian
ACHN renal = tested on: ACHN renal
KM12 colon = tested on: KM12 colon
IGROV1 ovarian = tested on: IGROV1 ovarian
CCRF-CEM leukemia = tested on: CCRF-CEM leukemia
786-0 renal = tested on: 786-0 renal
MDA-MB-435 = tested on: MDA-MB-435
MDA-MB-468 breast = tested on: MDA-MB-468 breast
MOLT-4 leukemia = tested on: MOLT-4 leukemia
SNB-75 CNS = tested on: SNB-75 CNS
CAKI-1 renal = tested on: CAKI-1 renal
HS 578T breast = tested on: HS 578T breast
BT-549 breast = tested on: BT-549 breast
HCT-116 colon = tested on: HCT-116 colon
SF-539 CNS = tested on: SF-539 CNS
SK-MEL-28 melanoma = tested on: SK-MEL-28 melanoma
DU-145 prostate = tested on: DU-145 prostate
UO-31 renal = tested on: UO-31 renal
M14 melanoma = tested on: M14 melanoma
UACC-62 melanoma = tested on: UACC-62 melanoma
TK-10 renal = tested on: TK-10 renal
HOP-62 NSCLC = tested on: HOP-62 NSCLC
SW-620 colon = tested on: SW-620 colon
NCI-H23 lung = tested on: NCI-H23 lung
NCI-H226 lung = tested on: NCI-H226 lung
COLO 205 colon = tested on: COLO 205 colon
T-47D breast = tested on: T-47D breast
PC-3 prostate = tested on: PC-3 prostate
HT29 colon = tested on: HT29 colon
SF-295 CNS = tested on: SF-295 CNS
SR leukemia = tested on: SR leukemia
SK-OV-3 ovarian = tested on: SK-OV-3 ovarian
RXF 393 renal = tested on: RXF 393 renal
OVCAR-5 ovarian = tested on: OVCAR-5 ovarian
MALME-3M melanoma = tested on: MALME-3M melanoma
NCI-H522 lung = tested on: NCI-H522 lung
LOX IMVI melanoma = tested on: LOX IMVI melanoma
U251 CNS = tested on: U251 CNS
HCC-2998 colon = tested on: HCC-2998 colon
NCI-H460 lung = tested on: NCI-H460 lung
A498 renal = tested on: A498 renal
SNB-19 CNS = tested on: SNB-19 CNS
SK-MEL-2 melanoma = tested on: SK-MEL-2 melanoma

## COc1ccc2cc([C@H](C)C(=O)[Se]CCC#N)ccc2c1
HL-60(TB) leukemia
  GI50: 1.38 µM
  TGI: 4.24 µM
SF-268 CNS
  GI50: 2.44 µM
  TGI: 5.11 µM
HCT-15 colon
  GI50: 2 µM
  TGI: 4.53 µM
MCF7 breast
  GI50: 2.22 µM
  TGI: 10 µM
HOP-92 NSCLC
  GI50: 1.76 µM
  TGI: 3.48 µM
K-562 leukemia
  GI50: 3.78 µM
  TGI: 23.6 µM
SK-MEL-5 melanoma
  GI50: 2.02 µM
  TGI: 4.07 µM
NCI/ADR-RES ovarian
  GI50: 2 µM
  TGI: 5.21 µM
RPMI-8226 leukemia
  GI50: 2.86 µM
  TGI: 9.32 µM
OVCAR-3 ovarian
  GI50: 2.39 µM
  TGI: 5.78 µM
ACHN renal
  GI50: 2.42 µM
  TGI: 5.42 µM
KM12 colon
  GI50: 5.63 µM
  TGI: 50.9 µM
IGROV1 ovarian
  GI50: 2.23 µM
  TGI: 4.98 µM
CCRF-CEM leukemia
  GI50: 3.06 µM
  TGI: 56.8 µM
786-0 renal
  GI50: 2.12 µM
  TGI: 3.72 µM
MDA-MB-435
  GI50: 1.79 µM
  TGI: 3.73 µM
MDA-MB-468 breast
  GI50: 1.96 µM
  TGI: 4.41 µM
MOLT-4 leukemia
  GI50: 2.62 µM
  TGI: 13 µM
SNB-75 CNS
  GI50: 1.78 µM
  TGI: 3.59 µM
CAKI-1 renal
  GI50: 1.88 µM
  TGI: 3.32 µM
HS 578T breast
  GI50: 2.07 µM
  TGI: 7.29 µM
BT-549 breast
  GI50: 1.61 µM
  TGI: 3.12 µM
HCT-116 colon
  GI50: 1.79 µM
  TGI: 3.37 µM
SF-539 CNS
  GI50: 1.95 µM
  TGI: 3.75 µM
SK-MEL-28 melanoma
  GI50: 2.02 µM
  TGI: 4.8 µM
DU-145 prostate
  GI50: 2.66 µM
  TGI: 8.51 µM
UO-31 renal
  GI50: 1.44 µM
  TGI: 2.78 µM
M14 melanoma
  GI50: 1.48 µM
  TGI: 3.44 µM
UACC-62 melanoma
  GI50: 2.52 µM
  TGI: 7.52 µM
TK-10 renal
  GI50: 1.63 µM
  TGI: 3.09 µM
HOP-62 NSCLC
  GI50: 2.16 µM
  TGI: 3.94 µM
SW-620 colon
  GI50: 2.91 µM
  TGI: 7.97 µM
NCI-H23 lung
  GI50: 2.71 µM
  TGI: 7.95 µM
NCI-H226 lung
  GI50: 1.56 µM
  TGI: 3.63 µM
COLO 205 colon
  GI50: 5.81 µM
  TGI: 23.1 µM
T-47D breast
  GI50: 5.43 µM
  TGI: 28.2 µM
PC-3 prostate
  GI50: 2.7 µM
  TGI: 8.53 µM
HT29 colon
  GI50: 2.02 µM
  TGI: 4.82 µM
SF-295 CNS
  GI50: 1.81 µM
  TGI: 3.55 µM
SR leukemia
  GI50: 2.13 µM
  TGI: 12.2 µM
SK-OV-3 ovarian
  GI50: 4.49 µM
  TGI: 7.42 µM
RXF 393 renal
  GI50: 1.67 µM
  TGI: 3.22 µM
OVCAR-5 ovarian
  GI50: 2.52 µM
  TGI: 6.29 µM
MALME-3M melanoma
  GI50: 1.64 µM
  TGI: 3.39 µM
NCI-H522 lung
  GI50: 1.48 µM
  TGI: 2.92 µM
LOX IMVI melanoma
  GI50: 1.89 µM
  TGI: 4.97 µM
U251 CNS
  GI50: 1.7 µM
  TGI: 3.26 µM
HCC-2998 colon
  GI50: 7.06 µM
  TGI: 22.6 µM
NCI-H460 lung
  GI50: 2.72 µM
  TGI: 12.1 µM
A498 renal
  GI50: 1.78 µM
  TGI: 3.27 µM
SNB-19 CNS
  GI50: 1.79 µM
  TGI: 3.47 µM
SK-MEL-2 melanoma
  GI50: 1.9 µM
  TGI: 4.39 µM
